Results as given in ChEMBL document CHEMBL6134883, “Novel Piperidinylpyridinylcarbonitrile Derivatives as QPCT and QPCTL Inhibitors for Treating Cancer” (ACS Med Chem Lett, 2025).

Experiment: Inhibition of N-terminal His/DDK-tagged recombinant human QPCTL extracted from HEK293T cells using QLLFNKTKSVEFTFC as substrate preincubated for 10 mins followed by substrate addition measured after 40 mins by MALDI-TOF MS analysis
Format: cell-free

| IC50 | SMILES |
| --- | --- |
| 1 nM | Cc1ccccc1-c1ccc2c(-c3nccc(C#N)c3N3CCC(F)(c4nncn4C)CC3)cnn2n1 |
| 1 nM | Cc1ccc(-c2ccc3c(-c4nccc(C#N)c4N4CCC(F)(c5nncn5C)CC4)cnn3n2)c(C)c1 |
| 1 nM | Cn1cnnc1C1(F)CCN(c2c(C#N)ccnc2-c2cnn3nc(-c4cccc(Cl)c4)ccc23)CC1 |
| 1 nM | Cn1cnnc1C1(F)CCN(c2c(C#N)cc(C3CC3(F)F)nc2-c2cnc3nn(C(C)(C)C)cc3c2)CC1 (stereo unspecified) |
| 1 nM | Cn1cnnc1C1(F)CCN(c2c(C#N)cc(C(C)(C)O)nc2-c2cnc3nn(C(C)(C)C)c(Cl)c3c2)CC1 |
| 1 nM | Cn1cnnc1C1(F)CCN(c2c(C#N)cc(C(F)(F)F)nc2-c2cnc3nc(C(C)(C)C)oc3c2)CC1 |
